Experimental data taken from the NIST ThermoML archive (doi:10.1021/acs.jced.8b01209).
Numbers after ± are expanded uncertainties.

Assays:
[1] = Molar enthalpy of transition or fusion; settings: Crystal; DSC
[2] = Crystal; DSC

In the case of Cc1ccc2cc(C)ccc2c1 [2,6-dimethylnaphthalene], the “Molar enthalpy of transition or fusion” value [1] is reported as 5.95 ± 0.136 kcal/mol and the Triple point temperature [2] is reported as 384.41 ± 1.2 K.
